Reference: US6316411A, “Protection against ischemia and reperfusion injury” (University of Kentucky Research Foundation, priority 2000, dated 2001)

What was measured:
mouse vas deferens = assay: Mouse vas deferens (m.v.d.) contractility assay; conditions: FIG. 8; 6000 nM glibenclamide with 1000 nM compound-D
Description: Glibenclamide, a KATP channel blocker, blocked the inhibition of contraction of mouse vas deferens induced by compound-D SEQ ID NO:1. With reference to FIG. 8, the effect of administration of 1000 nM compound-D SEQ ID NO:1 alone (open bar) versus 1000 nM compound-D SEQ ID NO:1 with 6000 nM glibenclamide (hatched bar) on contractility of mouse vas deferens (m.v.d.) (n=6) is shown. […] (n=2).

isolated rat hearts = assay: Isolated perfused rat heart (Langendorff), 20 min global ischemia and 120 min reperfusion after 24 h pretreatment; assay type: in vivo; conditions: FIG. 7, pretreated 24 h prior to ischemia, compound-D 2.0 mg/kg and/or naltrexone 3 mg/kg, 20 min ischemia, control about 27%
Description: Compound-D SEQ ID NO:1, at a dose of 2 mg/kg and solubilized as described above, was administered by tail vein injection into rats weighing between about 350-400 g (number of animals (n)=6). Control rats (n=6) were injected in the same manner with an equal volume of 0.9% NaCI. After 24 h, the hearts from both treated and control animals were excised and perfused in a modified Langendorff perfusion apparatus at 37° C. using oxygenated Krebs-Henseleit buffer as the perfusate, as known to one skilled in the art. Coronary perfusion pressure was maintained at 70 mm Hg by regulating coronary flow. All hearts were paced at […] (300 beats per minute, bpm) except during ischemia. A saline-filled balloon was inserted in the left ventricle to measure developed pressure (DP) and end-diastolic pressure (EDP) in mm Hg. After 15 min equilibration, both groups were subjected to 20 min zero-flow global ischemia, and then were reperfused for 120 min.
Left ventricles were isolated and divided into three segments along their short axis, stained with triphenyltetrazolium chloride, and stored in formalin. Infarct size was measured on digitized images and expressed as a per centage of myocardium. Data were expressed as mean plus or minus standard error of the mean (±SEM) and were analyze using a […] Student's t-Test. Confidence limits were established at 95%. […]

| Compound | effect of glibenclamide on compound-D suppressed m.v.d. contractions (mouse vas deferens) | infarct size (isolated rat hearts) |
| --- | --- | --- |
| COc1ccc(Cl)cc1C(=O)NCCc1ccc(S(=O)(=O)NC(=O)NC2CCCCC2)cc1 [Glibenclamide] | restored m.v.d. contractions |  |
| O=C1CC[C@@]2(O)[C@H]3Cc4ccc(O)c5c4[C@@]2(CCN3CC2CC2)[C@H]1O5 [naltrexone] |  | about 14.5% |
